Source: patent US12565659B2, “Recombinant lac polynucleotides and uses thereof to increase production of C-lignin in plants” (UNIVERSITY OF NORTH TEXAS, priority 2020, dated 2026)
Marks after values point to notes of the source that are not given here.

Test system: Recombinant ChLAC8
Assay: Laccase activity assay and enzyme kinetics of recombinant ChLAC8 with monolignol substrates
Type: biochemical, Cleome hassleriana
Settings: for oxidation of monolignol by ChLAC8 (decrease in substrate by HPLC): 200 μM substrate, 30 min, 25° C.; for dimers in reaction products (LC-MS/MS) / trimers in reaction products (LC-MS/MS): reaction with ChLAC8; for Kcat / Km / Vmax: recombinant ChLAC8, substrate 25 to 800 μM, pH 6.8, 25° C.
Method: The open reading frame (ORF) of ChLAC8 (ChLAC8X1, XM_010555066.1) was amplified with the primers listed in Wang Supp. Table 4, ligated into the pENTR/D-TOPO vector (Invitrogen), and subcloned into pDEST17 fused with a 6× histidine tag at the N-terminus via Gateway LR recombination reaction (Invitrogen). The resulting vector (pDEST17-ChLAC8) was transformed into E. coli Rosetta (DE3) (Novagen) for protein expression. The transgenic E. coli strain was cultured in LB medium at 37° C. until OD600=0.4-0.6 and then supplemented with 0.5 mM isopropyl-β-D-thiogalactoside (IPTG) to induce the expression of ChLAC8 at 16° C. for 20 h. After induction, cell cultures were harvested by centrifugation at 10,000×g for 5 min at 4° C., and the resulting pellets were used for ChLAC8 protein purification via Ni-NTA resin (Thermo Scientific) according to the manufacturer's manual. The eluted protein was further desalted into 50 mM potassium phosphate buffer (pH 6.8) using a 30 kDa cut-off Amicon Ultra centrifugal filter (Millipore). The purity of recombinant ChLAC8 was examined by SDS-PAGE and the protein concentration was quantified by Bradford assays.
Laccase activity assays were performed in a 100 μL reaction mixture consisting of 50 mM potassium phosphate buffer (pH 6.8), 10-20 μg of recombinant ChLAC8, and 200 μM monolignol substrate (caffeyl alcohol, coniferyl alcohol or sinapyl alcohol). The reactions were incubated at 25° C. for 30 min and terminated by adding 100 μL of methanol. The reaction products were injected into an HPLC or LC-MS/MS system for analysis as described below. The decrease in the level of the substrate was measured to calculate the enzyme activity. To determine kinetic parameters, ChLAC8 was incubated with different concentrations of caffeyl alcohol or sinapyl alcohol in a range from 25 to 800 μM. The enzyme assays were performed in triplicate at each substrate concentration, and the Vmax and Km values were calculated by Graphpad Prism 8 software with nonlinear regression analysis.
The reaction products were analyzed on an Agilent 1260 HPLC system equipped with a Luna C18(2) reverse-phase column (5 μm particle, 250×4.6 mm, Phenomenex) and separated in a mobile phase consisting of solvent A (1% in phosphoric acid in water) and solvent B (acetonitrile) with the following gradient: 5% B for 5 min, to 33% B in 25 min, to 45% B in 5 min, to 95% B in 5 min, keep at 95% B for 5 min, back to 5% B in 5 min.
LC-MS/MS analysis was performed using an Agilent 1290 Infinity II liquid chromatography system coupled to an Agilent 6400 Series Triple Quadrupole System with electrospray ionization source in negative ionization mode. A reverse phase ZORBAX RR Eclipse Plus C18, 95 Å, 4.6×250 mm, 5 μm (Agilent) was used for separation. The gradient for HPLC separation was 0.1% (v/v) formic acid in water (A) and 0.1% (v/v) formic acid in acetonitrile (B) with the following solvent gradient: 5% B for 5 min, to 40% B in 30 min, to 95% B in 5 min, 95% B for 5 min, to 5% B in 1 min. The total LC-MS/MS run was 46 min with a flow rate of 1.0 mL/min. Injection volume was 10 μL. MS data were recorded in the range of m/z 100-700 (Perna et al., 2018).

SMILES | oxidation of monolignol by ChLAC8 (decrease in substrate by HPLC) | dimers in reaction products (LC-MS/MS) | trimers in reaction products (LC-MS/MS) | Km value for caffeyl alcohol relative to that for sinapyl alcohol (recombinant ChLAC8) [fold] | Kcat | Km [µM] | Vmax [pKat mg^−1]
OC/C=C/c1ccc(O)c(O)c1 [Caffeyl alcohol, caffeyl alcohol] | could oxidize | consistent with the masses of dimers | trimers were observed | ~3.5 | 0.019 ± 0.003* sec^−1 | 210 ± 90.6 | 284.4 ± 50.4
COc1cc(/C=C/CO)ccc1O [Coniferyl alcohol, coniferyl alcohol] | not | No dimers were detected | – | – | – | – | –
COc1cc(/C=C/CO)cc(OC)c1O [Sinapyl alcohol, sinapyl alcohol] | could oxidize | consistent with the masses of dimers | No trimers were detected | – | 0.013 ± 0.001 s⁻¹ | 60.2 ± 16.7 | 192.0 ± 12.8
